Entries after “also recorded” stand apart in the source; their conditions may differ.
Assays:
Assay type in all cases: in vivo, mouse
[1] = tested on: C57BL/6J mice; assay: Plasma cholesterol and plasma lipoprotein profile, protocol #1
Experimental: Surgery and sample harvest. The groups were maintained for 14 days (protocol #1) or 30 days (protocol #2) in the different experimental conditions. During the last three days of the protocols, 24 h depositions were collected from the different groups (pool) to determine the fecal excretion of neutral sterols (cholesterol) and acidic sterols (bile salts). At the end of the time established in the protocols, the mice were anesthetized (between 08:00-10:00 AM) with an intraperitoneal pentobarbital injection in doses of 4.5 mg per 100 gr body weight (Amigo et al., 2000) and subjected to surgery. Standardized surgery consists in an extended […] and visualization of abdominal organs, including liver, biliary tree and gallbladder. First, we performed a resection of the gallbladder (cholecystectomy), with the cystic duct previously ligated (Amigo et al., 2002; Amigo et al., 2000; Amigo et al., 2003b). The gallbladder is removed and visually inspected to determine the presence of gallstones. Then, the gallbladder bile is extracted to analyze the presence of cholesterol crystals in the fresh samples under the microscope with polarized light (20×). Aliquots are stored at −20° C. for subsequent chemical analysis. Afterwards, the common biliary duct is cannulated (biliary fistula) with a P-10 polyethylene cannula to collect bile during 15 minutes, determine bile flow by gravimetry (1 g bile=1 ml; bile flow is expressed as μl/min/g of mouse liver) and for posterior chemical analysis of biliary lipids and glutathione, as specified later. […] Then, the liver is removed, weighted, frozen in liquid nitrogen and stored at −80 for subsequent analyses. The plasma is separated by centrifugation at 1,500 rpm and stored at −80° C. for later analysis. The animal protocols were approved by our institution Ethics Committee and the animals were treated according to international care rules for experimental animals.
Intestinal absorption of cholesterol and bile salts. The capacity of Ezetimibe to inhibit cholesterol and bile salt absorption was indirectly determined by quantification of neutral sterols (cholesterol) and acidic sterols (bile acids) present in the feces collected on day 12, 13 and 14 of the experiment (three days). In order to determine cholesterol (neutral sterols) fecal excretion, the feces were dried at 50° C. for three days and then weighted to obtain an average of fecal excretion per day (in grams). The feces were homogenized in a mortar, and 5 ml 2N NaOH:methanol, 1:1 are added per 100 mg (dry weight) aliquots of the homogenate. The sample is vortex and incubated at 60° C. for 1 h for saponification, then it is cooled and 5 ml petroleum ether is added followed by vigorous agitation to obtain the separation of the hydrophobic and hydrophilic phases. The samples are then centrifuged at 1,000 rpm for 10 minutes and the hydrophobic phase (upper layer) is recovered. Second and third extractions are performed by adding 5 ml petroleum ether to the hydrophilic phase. The hydrophobic phases are dried under gaseous nitrogen and the lipids are resuspended in 1 ml chloroform. 50 μl aliquots, in duplicate, are dried at room temperature, and total cholesterol is quantified according to the enzymatic method described above. The values obtained are expressed as μmoles cholesterol/day/100 g of mouse (Miettinen et al., 1965). […]

[2] = tested on: GGCS; assay: Hepatic expression of gamma-gluthamylcystein-synthetase (Northern blot); conditions: 14 days
Experimental: (§1) Expression of Specific Bile Salts (Ntcp, Bsep), Phospholipid (MDR2) and Organic Anions or Glutathione (MRP2); And Determination of Glutathione Synthesis (Gluthamylcystein-Synthetase (GGCS)).
(§2) Total RNA extraction. 80 mg hepatic tissue frozen at −70° C. was homogenized in 800 μl solution D, following the method described by Chomczynski and Sacchi, 1987. The RNA concentration was calculated by measuring the absorbance at 260 nm and its purity by the ratio OD260/OD280. The samples are stored at −20° C. RNA electrophoresis. 10 μg of total RNA are dried under gaseous N2 or vacuum for 10 minutes. 10 μl loading buffer were added, and the samples heated to 65° C., loaded into a denaturing 1% agarose/formaldehyde gel and run at 100 volts for 4 hours. The RNA integrity was determined by the clear visualization of the 28 S and 18 S ribosomal RNAs (FIG. 8).
(§3) Northern Blot and hybridization with radioactive probes. The gel with the RNA samples is washed with DEPC H2O for 10 minutes to eliminate formaldehyde and then incubated for 20 minutes with 50 mM NaOH for partial RNA hydrolysis. After a 10 minute wash with DEPC H2O to eliminate NaOH, the samples are transferred from the gel to Nylon membranes (Hybond-N, Amersham Pharmacia) over night by a capillary system. […]
(§4) Probe labeling by “de novo synthesis”. […] The percentage of incorporated radioactivity into the probe was always over 60%. […]

[3] = tested on: C57BL/6J mice; assay: Glutathione biliary secretion; conditions: lithogenic diet (FIG. 4)
Experimental: Surgery and sample harvest. The groups were maintained for 14 days (protocol #1) or 30 days (protocol #2) in the different experimental conditions. During the last three days of the protocols, 24 h depositions were collected from the different groups (pool) to determine the fecal excretion of neutral sterols (cholesterol) and acidic sterols (bile salts). At the end of the time established in the protocols, the mice were anesthetized (between 08:00-10:00 AM) with an intraperitoneal pentobarbital injection in doses of 4.5 mg per 100 gr body weight (Amigo et al., 2000) and subjected to surgery. Standardized surgery consists in an extended […] and visualization of abdominal organs, including liver, biliary tree and gallbladder. […] Afterwards, the common biliary duct is cannulated (biliary fistula) with a P-10 polyethylene cannula to collect bile during 15 minutes, determine bile flow by gravimetry (1 g bile=1 ml; bile flow is expressed as μl/min/g of mouse liver) and for posterior chemical analysis of biliary lipids and glutathione, as specified later. […]
Biliary gluthation. Biliary gluthation was quantified from the bile obtained by cannulation of the biliary duct for a 5 minute period with tubes containing 5 μl sulfosalicylic acid. […] The reaction mix was incubated at 37° C., measured at 412 nm, and an enzymatic kinetic curve was obtained using different […] concentrations as standard. […]

[4] = tested on: MDR2; assay: Hepatic expression of phospholipid transporter MDR2 (Northern blot)
Experimental: as §1, §2, §3, §4

O=C1[C@H](CC[C@H](O)c2ccc(F)cc2)[C@@H](c2ccc(O)cc2)N1c1ccc(F)cc1 [Ezetimibe, (−)-1-(4-fluorophenyl)-(3R)-[3-(4-fluorophenyl)-(.S)-hydroxypropyl]-(4S)-(4-hydroxyphenyl)-2-azetidinone]
Plasma Cholesterol ([1]; Chow + Ezetimibe, 14 days): 86.21 ± 13.8 mg/dL | Plasma Cholesterol ([1]; Lithogenic + Ezetimibe, 14 days): 161.38 ± 38.96 mg/dL | plasma lipoprotein profile, ezetimibe groups vs controls ([1]; chow and lithogenic diets, 14 days (FIG. 2)): did not show significant differences | concentration of total cholesterol in plasma, with vs without ezetimibe ([1]; control diet, 14 days): similar | increase of plasma cholesterol concentration, with vs without ezetimibe ([1]; lithogenic diet, 14 days): similarly | hepatic expression of GGCS, lithogenic diet plus Ezetimibe vs lithogenic diet [2]: no significant differences | increase in glutathione secretion vs lithogenic diet only (significant) [3]: 200% | phospholipid transporter MDR2 at the mRNA level ([4]; lithogenic diet plus Ezetimibe vs lithogenic diet, 14 days): small but statistically significant decrease; also recorded: slight but statistically significant decrease | mdr2 protein levels ([4]; lithogenic diet plus Ezetimibe, data not shown): no concomitant decrease
